Data published in patent US6335373B1, “Process to produce stabilized carnosic acid in high concentration” (Lycored Natural Products Industries, Ltd., priority 2000, dated 2002).

Assays:
[1] = Stabilization of carnosic acid in 60% ethanol rosemary extract with added acids, kept in the dark; type: physicochemical
Experimental: To 4.0 litre of ethanol (60%) are added 500 gr. of dried and finely ground rosemary leaves, having a concentration of 4.3% carnosic acid. Extraction is done for 3 hours at room temperature. 3.22 litre of extract are obtained by vacuum filtration of the biomass. The concentrate is divided to 200 ml. portions where different acids at various concentrations are added to these portions. All portions are kept in the dark and the variations in the carnosic acid concentrations of the different portions are checked. […] Only under acidic conditions is the concentration of carnosic acid retained where the optimal acids are phosphoric and ascorbic acid.

[2] = Exposure of carnosic acid in an extract to room temperature and light; type: physicochemical; conditions: pH of the extract above 6
stephilococus = conditions: against stephilococus and dental caries, reported; cited from earlier work
[3] = identified by Brieskorn and Domling in 1964; cited from earlier work

For `CC(C)c1cc2c(c(O)c1O)[C@@]1(C(=O)O)CCCC(C)(C)[C@@H]1CC2` [carnosic acid], the “Concentration of Carnosic” value ([1]; Acetic 1%, +2 Hours) was 4770 µg/mL, the “Concentration of Carnosic” value ([1]; Acetic 1%, +5 Hours) was 4740 µg/mL and the “Concentration of Carnosic” value ([1]; Acetic 1%, +1 hour) was 4760 µg/mL. For the same molecule, the “Concentration of Carnosic” value ([1]; Acetic 1%, +24 hour) was 4590 µg/mL, the “Concentration of Carnosic” value ([1]; Acetic 1%, +48 hours) was 4260 µg/mL and the “Concentration of Carnosic” value ([1]; Acetic 1%, Time Zero) was 4800 µg/mL. The “Concentration of Carnosic” value ([1]; Acetic 2%, +2 Hours) was 4690 µg/mL, the “Concentration of Carnosic” value ([1]; Acetic 2%, +5 Hours) was 4710 µg/mL and the “Concentration of Carnosic” value ([1]; Acetic 2%, +1 hour) was 4790 µg/mL. The “Concentration of Carnosic” value ([1]; Acetic 2%, +24 hour) was 4490 µg/mL, the “Concentration of Carnosic” value ([1]; Acetic 2%, +48 hours) was 4230 µg/mL and the “Concentration of Carnosic” value ([1]; Acetic 2%, Time Zero) was 4800 µg/mL. The “Concentration of Carnosic” value ([1]; Ascorbic 0.05%, +2 Hours) was 4710 µg/mL, the “Concentration of Carnosic” value ([1]; Ascorbic 0.05%, +5 Hours) was 4680 µg/mL and the “Concentration of Carnosic” value ([1]; Ascorbic 0.05%, +1 hour) was 4750 µg/mL. For the same molecule, the “Concentration of Carnosic” value ([1]; Ascorbic 0.05%, +24 hour) was 4780 µg/mL, the “Concentration of Carnosic” value ([1]; Ascorbic 0.05%, +48 hours) was 4790 µg/mL and the “Concentration of Carnosic” value ([1]; Ascorbic 0.05%, Time Zero) was 4800 µg/mL. The “Concentration of Carnosic” value ([1]; Ascorbic 0.1%, +2 Hours) was 4710 µg/mL, the “Concentration of Carnosic” value ([1]; Ascorbic 0.1%, +5 Hours) was 4720 µg/mL and the “Concentration of Carnosic” value ([1]; Ascorbic 0.1%, +1 hour) was 4740 µg/mL. For the same molecule, the “Concentration of Carnosic” value ([1]; Ascorbic 0.1%, +24 hour) was 4790 µg/mL, the “Concentration of Carnosic” value ([1]; Ascorbic 0.1%, +48 hours) was 4790 µg/mL and the “Concentration of Carnosic” value ([1]; Ascorbic 0.1%, Time Zero) was 4800 µg/mL. The “Concentration of Carnosic” value ([1]; Ascorbic 0.5%, +2 Hours) was 4830 µg/mL, the “Concentration of Carnosic” value ([1]; Ascorbic 0.5%, +5 Hours) was 4820 µg/mL and the “Concentration of Carnosic” value ([1]; Ascorbic 0.5%, +1 hour) was 4860 µg/mL. For the same molecule, the “Concentration of Carnosic” value ([1]; Ascorbic 0.5%, +24 hour) was 4810 µg/mL, the “Concentration of Carnosic” value ([1]; Ascorbic 0.5%, +48 hours) was 4820 µg/mL and the “Concentration of Carnosic” value ([1]; Ascorbic 0.5%, Time Zero) was 4800 µg/mL. For the same molecule, the “Concentration of Carnosic” value ([1]; Ascorbic 1%, +2 Hours) was 4840 µg/mL, the “Concentration of Carnosic” value ([1]; Ascorbic 1%, +5 Hours) was 4840 µg/mL and the “Concentration of Carnosic” value ([1]; Ascorbic 1%, +1 hour) was 4830 µg/mL. The “Concentration of Carnosic” value ([1]; Ascorbic 1%, +24 hour) was 4820 µg/mL, the “Concentration of Carnosic” value ([1]; Ascorbic 1%, +48 hours) was 4800 µg/mL and the “Concentration of Carnosic” value ([1]; Ascorbic 1%, Time Zero) was 4800 µg/mL. For the same molecule, the “Concentration of Carnosic” value ([1]; Citric 0.1%, +2 Hours) was 4560 µg/mL, the “Concentration of Carnosic” value ([1]; Citric 0.1%, +5 Hours) was 4490 µg/mL and the “Concentration of Carnosic” value ([1]; Citric 0.1%, +1 hour) was 4730 µg/mL. The “Concentration of Carnosic” value ([1]; Citric 0.1%, +24 hour) was 4270 µg/mL, the “Concentration of Carnosic” value ([1]; Citric 0.1%, +48 hours) was 4130 µg/mL and the “Concentration of Carnosic” value ([1]; Citric 0.1%, Time Zero) was 4800 µg/mL. The “Concentration of Carnosic” value ([1]; Citric 0.5%, +2 Hours) was 4580 µg/mL, the “Concentration of Carnosic” value ([1]; Citric 0.5%, +5 Hours) was 4530 µg/mL and the “Concentration of Carnosic” value ([1]; Citric 0.5%, +1 hour) was 4760 µg/mL. For the same molecule, the “Concentration of Carnosic” value ([1]; Citric 0.5%, +24 hour) was 4510 µg/mL, the “Concentration of Carnosic” value ([1]; Citric 0.5%, +48 hours) was 4220 µg/mL and the “Concentration of Carnosic” value ([1]; Citric 0.5%, Time Zero) was 4800 µg/mL. The “Concentration of Carnosic” value ([1]; Citric 1%, +2 Hours) was 4530 µg/mL, the “Concentration of Carnosic” value ([1]; Citric 1%, +5 Hours) was 4560 µg/mL and the “Concentration of Carnosic” value ([1]; Citric 1%, +1 hour) was 4760 µg/mL. The “Concentration of Carnosic” value ([1]; Citric 1%, +24 hour) was 4560 µg/mL, the “Concentration of Carnosic” value ([1]; Citric 1%, +48 hours) was 4420 µg/mL and the “Concentration of Carnosic” value ([1]; Citric 1%, Time Zero) was 4800 µg/mL. The “Concentration of Carnosic” value ([1]; Control, acid 0%, +2 Hours) was 4420 µg/mL, the “Concentration of Carnosic” value ([1]; Control, acid 0%, +5 Hours) was 4270 µg/mL and the “Concentration of Carnosic” value ([1]; Control, acid 0%, +1 hour) was 4510 µg/mL. The “Concentration of Carnosic” value ([1]; Control, acid 0%, +24 hour) was 3550 µg/mL, the “Concentration of Carnosic” value ([1]; Control, acid 0%, +48 hours) was 2780 µg/mL and the “Concentration of Carnosic” value ([1]; Control, acid 0%, Time Zero) was 4800 µg/mL. For the same molecule, the “Concentration of Carnosic” value ([1]; HCI 0.1%, +2 Hours) was 4680 µg/mL, the “Concentration of Carnosic” value ([1]; HCI 0.1%, +5 Hours) was 4520 µg/mL and the “Concentration of Carnosic” value ([1]; HCI 0.1%, +1 hour) was 4720 µg/mL. For the same molecule, the “Concentration of Carnosic” value ([1]; HCI 0.1%, +24 hour) was 3690 µg/mL, the “Concentration of Carnosic” value ([1]; HCI 0.1%, +48 hours) was 2930 µg/mL and the “Concentration of Carnosic” value ([1]; HCI 0.1%, Time Zero) was 4800 µg/mL. For the same molecule, the “Concentration of Carnosic” value ([1]; HCI 1%, +2 Hours) was 4720 µg/mL, the “Concentration of Carnosic” value ([1]; HCI 1%, +5 Hours) was 4530 µg/mL and the “Concentration of Carnosic” value ([1]; HCI 1%, +1 hour) was 4780 µg/mL. For the same molecule, the “Concentration of Carnosic” value ([1]; HCI 1%, +24 hour) was 4540 µg/mL, the “Concentration of Carnosic” value ([1]; HCI 1%, +48 hours) was 4390 µg/mL and the “Concentration of Carnosic” value ([1]; HCI 1%, Time Zero) was 4800 µg/mL. For the same molecule, the “Concentration of Carnosic” value ([1]; HCI 2%, +2 Hours) was 4700 µg/mL, the “Concentration of Carnosic” value ([1]; HCI 2%, +5 Hours) was 4580 µg/mL and the “Concentration of Carnosic” value ([1]; HCI 2%, +1 hour) was 4760 µg/mL. The “Concentration of Carnosic” value ([1]; HCI 2%, +24 hour) was 4460 µg/mL, the “Concentration of Carnosic” value ([1]; HCI 2%, +48 hours) was 4420 µg/mL and the “Concentration of Carnosic” value ([1]; HCI 2%, Time Zero) was 4800 µg/mL. For the same molecule, the “Concentration of Carnosic” value ([1]; Phosphoric 1%, +2 Hours) was 4790 µg/mL, the “Concentration of Carnosic” value ([1]; Phosphoric 1%, +5 Hours) was 4760 µg/mL and the “Concentration of Carnosic” value ([1]; Phosphoric 1%, +1 hour) was 4820 µg/mL. The “Concentration of Carnosic” value ([1]; Phosphoric 1%, +24 hour) was 4780 µg/mL, the “Concentration of Carnosic” value ([1]; Phosphoric 1%, +48 hours) was 4790 µg/mL and the “Concentration of Carnosic” value ([1]; Phosphoric 1%, Time Zero) was 4800 µg/mL. For the same molecule, the “Concentration of Carnosic” value ([1]; Phosphoric 2%, +2 Hours) was 4790 µg/mL, the “Concentration of Carnosic” value ([1]; Phosphoric 2%, +5 Hours) was 4750 µg/mL and the “Concentration of Carnosic” value ([1]; Phosphoric 2%, +1 hour) was 4770 µg/mL. The “Concentration of Carnosic” value ([1]; Phosphoric 2%, +24 hour) was 4810 µg/mL, the “Concentration of Carnosic” value ([1]; Phosphoric 2%, +48 hours) was 4780 µg/mL and the “Concentration of Carnosic” value ([1]; Phosphoric 2%, Time Zero) was 4800 µg/mL. The “period for which carnosic acid is stable” value ([1]; in acidic polar solution containing water, lower alkyl alcohol and acid) was “more than 24 hours”, the “decrease of carnosic acid” value ([1]; lack of acid) was 50% and the “change in concentration of carnosic acid” value [2] was “marked decrease”. The antibiotic action (stephilococus) was “antibiotic action” and the antioxidant activity [3] was “very potent antioxidant”.
